Measurements as given in PubChem BioAssay (NCI).
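Here, GI50 denotes the concentration required for 50% inhibition of growth. Definition used: TGI = concentration required for complete inhibition of growth.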

What was measured:
Experiment in all cases: DTP human tumour cell line panel, 384-well format
[1] = system: HCC-2998 colon
[2] = system: CAKI-1 renal
[3] = system: LOX IMVI melanoma
[4] = system: MDA-MB-468 breast
[5] = system: SNB-19 CNS
[6] = system: TK-10 renal
[7] = system: MCF7 breast
[8] = system: PC-3 prostate
[9] = system: CCRF-CEM leukemia
[10] = system: SF-539 CNS
[11] = system: OVCAR-8 ovarian
[12] = system: RPMI-8226 leukemia
[13] = system: HT29 colon
[14] = system: OVCAR-4 ovarian
[15] = system: K-562 leukemia
[16] = system: NCI-H322M lung
[17] = system: UACC-62 melanoma
[18] = system: NCI-H460 NSCLC
[19] = system: SK-OV-3 ovarian
[20] = system: SK-MEL-28 melanoma
[21] = system: SNB-75 CNS
[22] = system: SN12C renal
[23] = system: U251 glioblastoma
[24] = system: MALME-3M melanoma
[25] = system: DU-145 prostate
[26] = system: NCI-H522 lung
[27] = system: EKVX NSCLC
[28] = system: NCI-H23 lung
[29] = system: SW-620 colon
[30] = system: OVCAR-3 ovarian
[31] = system: BT-549 breast
[32] = system: A498 renal
[33] = system: HCT-15 colon
[34] = system: 786-0 renal
[35] = system: HL-60(TB) leukemia
[36] = system: T-47D breast
[37] = system: SF-268 CNS
[38] = system: ACHN renal
[39] = system: RXF 393 renal
[40] = system: SR leukemia
[41] = system: NCI/ADR-RES ovarian
[42] = system: UACC-257 melanoma
[43] = system: A549 NSCLC
[44] = system: MDA-MB-231 breast
[45] = system: NCI-H226 lung
[46] = system: HOP-62 NSCLC
[47] = system: SF-295 CNS
[48] = system: SK-MEL-2 melanoma
[49] = system: IGROV1 ovarian
[50] = system: MDA-MB-435 melanoma
[51] = system: OVCAR-5 ovarian
[52] = system: MOLT-4 leukemia
[53] = system: SK-MEL-5 melanoma
[54] = system: KM12 colon
[55] = system: HCT-116 colon
[56] = system: HS 578T breast
[57] = system: M14 melanoma
[58] = system: COLO 205 colon

Cc1[nH]ncc1-c1cc2nc(C3CC4CCN3CC4)[nH]c(=O)c2s1 (stereo not given)
GI50 [1]: 3.48 µM | TGI [1]: 24.2 µM | GI50 [2]: 1.56 µM | TGI [2]: > 100 µM | GI50 [3]: 0.888 µM | TGI [3]: 14.6 µM | GI50 [4]: 1.17 µM | TGI [4]: 20.9 µM | GI50 [5]: 9.66 µM | TGI [5]: > 100 µM | GI50 [6]: 9.31 µM | TGI [6]: > 79.3 µM | GI50 [7]: 3.55 µM | TGI [7]: > 100 µM | GI50 [8]: 8.96 µM | TGI [8]: > 100 µM | GI50 [9]: 0.138 µM | TGI [9]: 0.905 µM | GI50 [10]: 1.31 µM | TGI [10]: 7.72 µM | GI50 [11]: 8.87 µM | TGI [11]: > 100 µM | GI50 [12]: 10.3 µM | TGI [12]: 22 µM | GI50 [13]: 14.4 µM | TGI [13]: > 100 µM | GI50 [14]: 21.4 µM | TGI [14]: 74.9 µM | GI50 [15]: 5.24 µM | TGI [15]: > 100 µM | GI50 [16]: 6.94 µM | TGI [16]: 34.3 µM | GI50 [17]: 2.88 µM | TGI [17]: 15.5 µM | GI50 [18]: 1.19 µM | TGI [18]: 5.55 µM | GI50 [19]: 17.8 µM | TGI [19]: > 100 µM | GI50 [20]: 6.67 µM | TGI [20]: 23.2 µM | GI50 [21]: 2.06 µM | TGI [21]: 7.46 µM | GI50 [22]: 1.78 µM | TGI [22]: 17.9 µM | GI50 [23]: 1.38 µM | TGI [23]: 74.2 µM | GI50 [24]: 11.1 µM | TGI [24]: 29.7 µM | GI50 [25]: 0.876 µM | TGI [25]: > 100 µM | GI50 [26]: 0.381 µM | TGI [26]: 7.5 µM | GI50 [27]: 5.93 µM | TGI [27]: 42.9 µM | GI50 [28]: 1.36 µM | TGI [28]: 6.79 µM | GI50 [29]: 0.333 µM | GI50 [30]: 2.93 µM | TGI [30]: 18.3 µM | GI50 [31]: 1.85 µM | TGI [31]: 6.54 µM | GI50 [32]: 0.0828 µM | TGI [32]: 70.7 µM | GI50 [33]: 2.74 µM | TGI [33]: > 100 µM | GI50 [34]: 2.75 µM | TGI [34]: 55.1 µM | GI50 [35]: 0.562 µM | TGI [35]: 1.8 µM | GI50 [36]: 24.9 µM | TGI [36]: > 100 µM | GI50 [37]: 1.42 µM | TGI [37]: 4.23 µM | GI50 [38]: 1.96 µM | TGI [38]: > 100 µM | GI50 [39]: 2.27 µM | TGI [39]: 7.19 µM | GI50 [40]: 0.178 µM | TGI [40]: 0.366 µM | GI50 [41]: 16.2 µM | TGI [41]: 65.8 µM | GI50 [42]: 15.2 µM | TGI [42]: 43.8 µM | GI50 [43]: 2.86 µM | TGI [43]: > 100 µM | GI50 [44]: 7.14 µM | TGI [44]: > 100 µM | GI50 [45]: 2.53 µM | TGI [45]: 15.9 µM | GI50 [46]: 2.31 µM | TGI [46]: 16.1 µM | GI50 [47]: 1.19 µM | TGI [47]: 49.4 µM | GI50 [48]: 6.55 µM | TGI [48]: 18.4 µM | GI50 [49]: 3.76 µM | TGI [49]: > 51.1 µM | GI50 [50]: 9.26 µM | TGI [50]: 28 µM | GI50 [51]: 4.24 µM | TGI [51]: > 100 µM | GI50 [52]: 1.14 µM | TGI [52]: 11.3 µM | GI50 [53]: 2.18 µM | TGI [53]: 7.13 µM | GI50 [54]: 3.22 µM | TGI [54]: 25.7 µM | GI50 [55]: 2.16 µM | TGI [55]: > 100 µM | GI50 [56]: 1.48 µM | TGI [56]: 3.32 µM | GI50 [57]: 5.7 µM | TGI [57]: 19.4 µM | GI50 [58]: 0.0396 µM | TGI [58]: 0.198 µM
